± gives the uncertainty stated by the source.
Assay: xn = mol fraction of the nth substance listed
Settings: 101 kPa

CCCCCCCCCCCCCCCC[n+]1ccccc1.O=C([O-])C(O)c1ccccc1 + CC(C)[C@H](N)C(=O)O + O
electrical conductivity [S/m]
Settings | 293.15 K | 298.15 K | 303.15 K | 308.15 K | 313.15 K
x1 = 9.1e-07, x2 = 0.0009002 | 0.00089 ± 0.00081 | 0.00101 ± 0.00096 | 0.0011 ± 0.001 | 0.0013 ± 0.0012 | 0.0014 ± 0.0013
x1 = 9.1e-07, x2 = 0.001799 | 0.00133 ± 0.00086 | 0.00151 ± 0.00098 | 0.0017 ± 0.0011 | 0.0019 ± 0.0012 | 0.0021 ± 0.0013
x1 = 1.08e-06, x2 = 0 | 0.00061 ± 0.00098 | 0.00068 ± 0.0011 | 0.00076 ± 0.0012 | 0.00083 ± 0.0013 | 0.0009 ± 0.0015
x1 = 1.98e-06, x2 = 0 | 0.001 ± 0.001 | 0.0012 ± 0.0012 | 0.0013 ± 0.0013 | 0.0014 ± 0.0014 | 0.0016 ± 0.0015
x1 = 2e-06, x2 = 0.001799 | 0.00178 ± 0.00087 | 0.00203 ± 0.00097 | 0.0023 ± 0.0011 | 0.0025 ± 0.0012 | 0.0028 ± 0.0013
x1 = 2.17e-06, x2 = 0.0009002 | 0.0013 ± 0.0011 | 0.0015 ± 0.0011 | 0.0017 ± 0.0012 | 0.0019 ± 0.0013 | 0.0021 ± 0.0021
x1 = 2.88e-06, x2 = 0 | 0.00147 ± 0.00099 | 0.0016 ± 0.0011 | 0.0018 ± 0.0012 | 0.002 ± 0.0014 | 0.0022 ± 0.0015
x1 = 3.09e-06, x2 = 0.001799 | 0.00218 ± 0.0009 | 0.0025 ± 0.001 | 0.0028 ± 0.0011 | 0.0031 ± 0.0013 | 0.0034 ± 0.0014
x1 = 3.26e-06, x2 = 0.0009002 | 0.00176 ± 0.00084 | 0.002 ± 0.00095 | 0.0022 ± 0.001 | 0.0025 ± 0.0012 | 0.0028 ± 0.0013
x1 = 3.96e-06, x2 = 0 | 0.0019 ± 0.001 | 0.0022 ± 0.0011 | 0.0024 ± 0.0013 | 0.0026 ± 0.0014 | 0.0029 ± 0.0015
x1 = 4e-06, x2 = 0.001799 | 0.00257 ± 0.00091 | 0.0029 ± 0.001 | 0.0032 ± 0.0011 | 0.0036 ± 0.0013 | 0.004 ± 0.0014
x1 = 4.53e-06, x2 = 0.0009002 | 0.00226 ± 0.00084 | 0.00256 ± 0.00094 | 0.0029 ± 0.001 | 0.0032 ± 0.0012 | 0.0035 ± 0.0013
x1 = 4.69e-06, x2 = 0 | 0.0023 ± 0.001 | 0.0026 ± 0.0011 | 0.0029 ± 0.0013 | 0.0031 ± 0.0014 | 0.0035 ± 0.0015
x1 = 5.1e-06, x2 = 0.001799 | 0.00299 ± 0.0009 | 0.0034 ± 0.001 | 0.0038 ± 0.0011 | 0.0042 ± 0.0013 | 0.0046 ± 0.0014
x1 = 5.95e-06, x2 = 0 | 0.00281 ± 0.00098 | 0.0032 ± 0.0011 | 0.0035 ± 0.0012 | 0.0038 ± 0.0013 | 0.0042 ± 0.0015
x1 = 5.98e-06, x2 = 0.0009002 | 0.00283 ± 0.00083 | 0.0032 ± 0.00094 | 0.0036 ± 0.001 | 0.004 ± 0.0012 | 0.0044 ± 0.0013
x1 = 6.37e-06, x2 = 0.001799 | 0.00351 ± 0.0009 | 0.004 ± 0.001 | 0.0044 ± 0.0011 | 0.0049 ± 0.0013 | 0.0055 ± 0.0014
x1 = 7.21e-06, x2 = 0 | 0.00341 ± 0.00095 | 0.0038 ± 0.0011 | 0.0042 ± 0.0012 | 0.0046 ± 0.0013 | 0.0051 ± 0.0015
x1 = 7.42e-06, x2 = 0.0009002 | 0.00334 ± 0.00084 | 0.00378 ± 0.00095 | 0.0042 ± 0.0011 | 0.0047 ± 0.0012 | 0.0051 ± 0.0013
x1 = 7.83e-06, x2 = 0.001799 | 0.00405 ± 0.00087 | 0.00458 ± 0.00099 | 0.0051 ± 0.0011 | 0.0057 ± 0.0013 | 0.0063 ± 0.0014
x1 = 8.83e-06, x2 = 0 | 0.00406 ± 0.00092 | 0.0046 ± 0.001 | 0.005 ± 0.0011 | 0.0055 ± 0.0013 | 0.006 ± 0.0014
x1 = 8.87e-06, x2 = 0.0009002 | 0.00384 ± 0.0008 | 0.00435 ± 0.00091 | 0.0049 ± 0.001 | 0.0054 ± 0.0011 | 0.006 ± 0.0013
x1 = 9.28e-06, x2 = 0.001799 | 0.00457 ± 0.00085 | 0.00517 ± 0.00096 | 0.0058 ± 0.0011 | 0.0064 ± 0.0012 | 0.0072 ± 0.0014
x1 = 1.032e-05, x2 = 0.0009002 | 0.00431 ± 0.00078 | 0.00487 ± 0.00089 | 0.0054 ± 0.001 | 0.0061 ± 0.0011 | 0.0067 ± 0.0013
x1 = 1.045e-05, x2 = 0 | 0.00469 ± 0.00089 | 0.0053 ± 0.001 | 0.0058 ± 0.0011 | 0.0065 ± 0.0012 | 0.0071 ± 0.0014
x1 = 1.074e-05, x2 = 0.001799 | 0.00499 ± 0.00082 | 0.00564 ± 0.00092 | 0.0063 ± 0.001 | 0.0071 ± 0.0012 | 0.0079 ± 0.0013
x1 = 1.177e-05, x2 = 0.0009002 | 0.00466 ± 0.00079 | 0.00529 ± 0.00089 | 0.0059 ± 0.001 | 0.0066 ± 0.0011 | 0.0074 ± 0.0013
x1 = 1.201e-05, x2 = 0.001799 | 0.00536 ± 0.0008 | 0.00607 ± 0.00091 | 0.0068 ± 0.001 | 0.0076 ± 0.0011 | 0.0085 ± 0.0013
x1 = 1.207e-05, x2 = 0 | 0.00516 ± 0.00088 | 0.0058 ± 0.001 | 0.0064 ± 0.0011 | 0.0071 ± 0.0012 | 0.0079 ± 0.0014
x1 = 1.322e-05, x2 = 0.0009002 | 0.00502 ± 0.00078 | 0.00569 ± 0.00089 | 0.0064 ± 0.001 | 0.0071 ± 0.0011 | 0.0079 ± 0.0013
x1 = 1.347e-05, x2 = 0.001799 | 0.00572 ± 0.00082 | 0.00647 ± 0.00093 | 0.0073 ± 0.001 | 0.0081 ± 0.0012 | 0.009 ± 0.0013
x1 = 1.351e-05, x2 = 0 | 0.00562 ± 0.00086 | 0.00631 ± 0.00097 | 0.007 ± 0.0011 | 0.0077 ± 0.0012 | 0.0085 ± 0.0013
x1 = 1.431e-05, x2 = 0.0009002 | 0.00533 ± 0.00073 | 0.00604 ± 0.00081 | 0.00678 ± 0.00091 | 0.0076 ± 0.001 | 0.0084 ± 0.0011
x1 = 1.474e-05, x2 = 0.001799 | 0.00607 ± 0.00083 | 0.00687 ± 0.00094 | 0.0077 ± 0.0011 | 0.0086 ± 0.0012 | 0.0096 ± 0.0013
x1 = 1.478e-05, x2 = 0 | 0.00603 ± 0.0009 | 0.0068 ± 0.001 | 0.0075 ± 0.0011 | 0.0083 ± 0.0012 | 0.0092 ± 0.0013
x1 = 1.557e-05, x2 = 0.0009002 | 0.00565 ± 0.00094 | 0.0064 ± 0.00085 | 0.00717 ± 0.00096 | 0.008 ± 0.0011 | 0.0089 ± 0.0014
x1 = 1.583e-05, x2 = 0.001799 | 0.00637 ± 0.00088 | 0.0072 ± 0.00099 | 0.0081 ± 0.0011 | 0.009 ± 0.0012 | 0.01 ± 0.0014
x1 = 1.622e-05, x2 = 0 | 0.00644 ± 0.00092 | 0.0072 ± 0.001 | 0.008 ± 0.0011 | 0.0089 ± 0.0013 | 0.0098 ± 0.0014
x1 = 1.666e-05, x2 = 0.0009002 | 0.006 ± 0.001 | 0.00675 ± 0.00093 | 0.0076 ± 0.001 | 0.0084 ± 0.0012 | 0.0094 ± 0.0015
x1 = 1.766e-05, x2 = 0 | 0.00687 ± 0.00093 | 0.0077 ± 0.001 | 0.0085 ± 0.0012 | 0.0094 ± 0.0013 | 0.0104 ± 0.0014

CCCC[N+](C)(C)C.O=S(=O)([N-]S(=O)(=O)C(F)(F)F)C(F)(F)F + CC(O)C(C)O
Settings | viscosity [mPa·s]
328.15 K, x2 = 0 | 30 ± 1.7

CCCC[N+](C)(C)C.O=S(=O)([N-]S(=O)(=O)C(F)(F)F)C(F)(F)F + CC(O)CO
Settings | viscosity [mPa·s]
323.15 K, x2 = 0 | 35.6 ± 2
323.15 K, x2 = 0.8843 | 11.79 ± 0.71
328.15 K, x2 = 0.1909 | 19.2 ± 1.1
333.15 K, x2 = 0.3054 | 14.35 ± 0.85
338.15 K, x2 = 0 | 22.1 ± 1.3
338.15 K, x2 = 0.3054 | 12.44 ± 0.75
338.15 K, x2 = 0.5274 | 9.87 ± 0.6
338.15 K, x2 = 0.8149 | 7.45 ± 0.47
343.15 K, x2 = 0 | 19.2 ± 1.1
348.15 K, x2 = 0 | 16.81 ± 0.99
348.15 K, x2 = 0.1909 | 11.32 ± 0.68
348.15 K, x2 = 0.5274 | 7.89 ± 0.49
348.15 K, x2 = 0.8149 | 5.76 ± 0.38
353.15 K, x2 = 0.8149 | 5.53 ± 0.36

CCCC[N+](C)(C)C.O=S(=O)([N-]S(=O)(=O)C(F)(F)F)C(F)(F)F + CCC(O)CO
Settings | viscosity [mPa·s]
323.15 K, x2 = 0.6289 | 15.53 ± 0.92
328.15 K, x2 = 0 | 30 ± 1.7
338.15 K, x2 = 0.2291 | 14.17 ± 0.84
338.15 K, x2 = 0.3543 | 11.92 ± 0.72
343.15 K, x2 = 0.2291 | 12.41 ± 0.74
348.15 K, x2 = 0.6289 | 7.02 ± 0.45
353.15 K, x2 = 0.5116 | 7.12 ± 0.45
353.15 K, x2 = 0.8622 | 4.78 ± 0.32

CC(C)[C@H](N)C(=O)O + CCCCCCCCCCCCCCCC[n+]1ccccc1.O=C([O-])C(O)c1ccccc1 + O
Settings | electrical conductivity [S/m]
313.15 K, x2 = 0, x1 = 0.001799 | 0.0016 ± 0.0013

CC(C)[C@H](N)C(=O)O + CCCCCCCCCCCCCCCC[n+]1ccccc1.O=C([O-])c1ccccc1O + O
Settings | electrical conductivity [S/m]
313.15 K, x1 = 0.001799, x2 = 0 | 0.00161 ± 9.7e-05

C[C@@H](O)[C@H](N)C(=O)O + CCCCCCCCCCCCCCCC[n+]1ccccc1.[Cl-] + O
308.15 K
Settings | electrical conductivity [S/m]
x1 = 2.018e-05, x2 = 0 | 0.000218 ± 2e-06
x1 = 0.0002, x2 = 0 | 7.7e-05 ± 1e-06
x1 = 0.0009182, x2 = 0 | 0.000219 ± 2e-06

CC(C)[C@H](N)C(=O)O + CCCCCCCCCCCCCC[n+]1ccccc1.O=C([O-])C(O)c1ccccc1 + O
Settings | electrical conductivity [S/m]
313.15 K, x2 = 0, x1 = 0.001799 | 0.00161 ± 0.00067

— the CheMixHub ionic liquid set
